Test results taken from the supplement of paper PMC11061612.

Key:
Assay in all cases: combination Emax (second highest fraction inhibited in the dose matrix, 72 h); higher = more inhibition; extreme values may be limits of the assay
A101D (Melanoma) = system: A101D (Melanoma)
Outline: (§1)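 Cell lines grown in DMEM/F12 or RPMI with 10% FBS were plated in 1536-well plates and held 24 hours at 37°C, 5% CO2 before 72 hours of exposure to two-drug dose matrices, with DMSO typically at 0.2%. CellTiter-Glo 2.0 luminescence gave viability, which was converted to inhibition. Vehicle wells were set to 0 and blank wells to 1. Combination Emax is the second-highest inhibition in the matrix, and Bliss excess is the observed combination effect minus the expected EA + EB − EA·EB, where EA and EB are the single-agent effects.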

[1] = system: CGTH-W-1 (Thyroid Gland Carcinoma)
Outline: as §1

COLO-792 (Melanoma) = system: COLO-792 (Melanoma)
Outline: as §1

EB2 (Burkitt's Lymphoma) = system: EB2 (Burkitt's Lymphoma)
Outline: as §1

EW-7 (Ewing's Sarcoma) = system: EW-7 (Ewing's Sarcoma)
Outline: as §1

[2] = system: GA-10 (Burkitt's Lymphoma)
Outline: as §1

[3] = system: HCC1428 (Breast Carcinoma)
Outline: as §1

[4] = system: JHU-022 (Oral Cavity Carcinoma)
Outline: as §1

[5] = system: JIMT-1 (Breast Carcinoma)
Outline: as §1

[6] = system: Jurkat (T-Lymphoblastic Leukemia)
Outline: as §1

KP-N-YN (Neuroblastoma) = system: KP-N-YN (Neuroblastoma)
Outline: as §1

[7] = system: KYSE-140 (Esophageal Squamous Cell Carcinoma)
Outline: as §1

[8] = system: MDA-MB-436 (Breast Carcinoma)
Outline: as §1

NB13 (Neuroblastoma) = system: NB13 (Neuroblastoma)
Outline: as §1

[9] = system: NCI-H2228 (Lung Adenocarcinoma)
Outline: as §1

[10] = system: NCI-H716 (Colorectal Carcinoma)
Outline: as §1

[11] = system: OACp4C (Esophageal Adenocarcinoma)
Outline: as §1

PEO1 (Ovarian Carcinoma) = system: PEO1 (Ovarian Carcinoma)
Outline: as §1

[12] = system: UACC-812 (Breast Carcinoma)
Outline: as §1

WM1552C (Melanoma) = system: WM1552C (Melanoma)
Outline: as §1

Compound	combination Emax (A101D (Melanoma))	combination Emax [1]	combination Emax (COLO-792 (Melanoma))	combination Emax (EB2 (Burkitt's Lymphoma))	combination Emax (EW-7 (Ewing's Sarcoma))	combination Emax [2]	combination Emax [3]	combination Emax [4]	combination Emax [5]	combination Emax [6]	combination Emax (KP-N-YN (Neuroblastoma))	combination Emax [7]	combination Emax [8]	combination Emax (NB13 (Neuroblastoma))	combination Emax [9]	combination Emax [10]	combination Emax [11]	combination Emax (PEO1 (Ovarian Carcinoma))	combination Emax [12]	combination Emax (WM1552C (Melanoma))
COc1cccc2c1C(=O)c1c(O)c3c(c(O)c1C2=O)C[C@@](O)(C(=O)CO)C[C@@H]3O[C@H]1C[C@H](N)[C@H](O)[C@H](C)O1 [Doxorubicin] + Cc1cc2ncnn2cc1Nc1ncc2c(n1)n(C1CCOCC1)c(=O)n2C [AZD7648] (first compound max 1 µM, 7x7, partner max 10 µM)	0.897	0.749	0.445	0.979	0.889	0.963	0.168	0.858	0.697	0.972	0.698	0.442	0.504	0.923	0.742	0.305	0.783	0.419	0.296	0.793
COc1cccc(OCCCN)c1-c1cc(Nc2cnc(C#N)cn2)n[nH]1 [Prexasertib] + C=CCn1c(=O)c2cnc(Nc3ccc(N4CCN(C)CC4)cc3)nc2n1-c1cccc(C(C)(C)O)n1 [AZD1775] (first compound max 1 µM, partner max 1 µM)	0.832	0.765	0.593	0.936	0.962	1	0.688	0.624	0.869	1	0.994	0.959	0.599	0.935	0.719	0.664	0.835	0.478	0.662	0.885
COc1cccc(OCCCN)c1-c1cc(Nc2cnc(C#N)cn2)n[nH]1 [Prexasertib] + CCc1c2c(nc3ccc(O)cc13)-c1cc3c(c(=O)n1C2)COC(=O)[C@]3(O)CC [SN-38] (first compound max 1 µM, 7x7, partner max 0.3 µM)	0.899	0.832	0.559	0.976	0.96	1	0.797	0.756	0.87	1	0.985	0.945	0.693	0.962	0.821	0.726	0.918	0.71	0.604	0.833
COc1cccc(OCCCN)c1-c1cc(Nc2cnc(C#N)cn2)n[nH]1 [Prexasertib] + CN(C)CCCOc1ccc(-c2ccc3ncc4c(c3c2)n(C2CCOCC2)c(=O)n4C)cn1 [AZD0156] (first compound max 1 µM, 7x7, partner max 1 µM)	0.737	0.777	0.386	0.909	0.981	1	0.408	0.659	0.869	0.992	0.999	0.959	0.41	0.935	0.664	0.662	0.672	0.388	0.537	0.844
COc1cccc(OCCCN)c1-c1cc(Nc2cnc(C#N)cn2)n[nH]1 [Prexasertib] + C[C@@H]1COCCN1C2=NC(=NC(=C2)C3(CC3)[S@](=N)(=O)C)C4=C5C=CNC5=NC=C4 [AZD6738] (first compound max 1 µM, 7x7, partner max 10 µM)	0.773	0.711	0.351	0.92	0.971	1	0.378	0.627	0.857	0.992	1	0.959	0.473	0.943	0.643	0.616	0.737	0.489	0.542	0.743
COc1cccc(OCCCN)c1-c1cc(Nc2cnc(C#N)cn2)n[nH]1 [Prexasertib] + Cc1cc2ncnn2cc1Nc1ncc2c(n1)n(C1CCOCC1)c(=O)n2C [AZD7648] (first compound max 1 µM, 7x7, partner max 10 µM)	0.762	0.725	0.317	0.92	0.971	1	0.345	0.634	0.864	1	0.992	0.953	0.431	0.919	0.682	0.662	0.649	0.415	0.546	0.763
COc1cccc(OCCCN)c1-c1cc(Nc2cnc(C#N)cn2)n[nH]1 [Prexasertib] + O=C(c1cc(Cc2n[nH]c(=O)c3ccccc23)ccc1F)N1CCN(C(=O)C2CC2)CC1 [Olaparib] (first compound max 1 µM, 7x7, partner max 10 µM)	0.788	0.714	0.322	0.916	0.955	0.987	0.622	0.637	0.788	0.994	0.845	0.826	0.509	0.881	0.726	0.616	0.642	0.388	0.558	0.711
CCc1c2c(nc3ccc(O)cc13)-c1cc3c(c(=O)n1C2)COC(=O)[C@]3(O)CC [SN-38] + CN(C)CCCOc1ccc(-c2ccc3ncc4c(c3c2)n(C2CCOCC2)c(=O)n4C)cn1 [AZD0156] (first compound max 0.3 µM, 7x7, partner max 1 µM)	0.674	0.771	0.361	0.948	0.975	0.913	0.123	0.842	0.266	0.999	0.806	0.305	0.572	0.886	0.716	0.202	0.714	0.674	0.608	0.59
Cn1cnc2c(F)c(Nc3ccc(Br)cc3Cl)c(C(=O)NOCCO)cc21 [Selumetinib] + C=CCn1c(=O)c2cnc(Nc3ccc(N4CCN(C)CC4)cc3)nc2n1-c1cccc(C(C)(C)O)n1 [AZD1775] (first compound max 10 µM, partner max 1 µM)	0.64	0.0375	0.694	0.785	0.806	1	0.211	0.529	0.6	0.875	0.936	0.683	0.311	0.794	0.453	0.428	0.909	0.335	0.138	0.458
Cn1cnc2c(F)c(Nc3ccc(Br)cc3Cl)c(C(=O)NOCCO)cc21 [Selumetinib] + CC(C)n1c(=O)n(C)c2cnc3cc(F)c(-c4ccc(OCCCN5CCCCC5)nc4)cc3c21 [AZD1390] (first compound max 10 µM, 7x7, partner max 0.3 µM)	0.528	0.044	0.498	0.0739	0.15	0.165	0.169	0.497	0.131	0.124	0.398	0.191	0.259	0.0733	0.203	0.452	0.43	0.266	0.129	0.384
Cn1cnc2c(F)c(Nc3ccc(Br)cc3Cl)c(C(=O)NOCCO)cc21 [Selumetinib] + CCN(CCO)CCCOc1ccc2c(Nc3cc(CC(=O)Nc4cccc(F)c4)[nH]n3)ncnc2c1 [AZD2811] (first compound max 10 µM, 7x7, partner max 1 µM)	0.596	0.125	0.51	0.182	0.509	0.7	0.297	0.54	0.153	0.203	0.581	0.294	0.264	0.367	0.296	0.428	0.838	0.29	0.166	0.439
Cn1cnc2c(F)c(Nc3ccc(Br)cc3Cl)c(C(=O)NOCCO)cc21 [Selumetinib] + C[C@@H]1COCCN1C2=NC(=NC(=C2)C3(CC3)[S@](=N)(=O)C)C4=C5C=CNC5=NC=C4 [AZD6738] (first compound max 10 µM, 7x7, partner max 10 µM)	0.76	0.162	0.589	0.755	0.951	0.977	0.187	0.567	0.491	0.913	0.949	0.786	0.243	0.855	0.405	0.577	0.856	0.441	0.319	0.59
CC(=O)Nc1cccc(-n2c(=O)n(C3CC3)c(=O)c3c(Nc4ccc(I)cc4F)n(C)c(=O)c(C)c32)c1 [Trametinib] + Cc1nc(-c2cn3c(n2)-c2ccc(-c4cnn(C(C)(C)C(N)=O)c4)cc2OCC3)n(C(C)C)n1 [Taselisib] (first compound max 1 µM, 7x7, partner max 10 µM)	0.923	0.99	1	0.593	1	0.682	0.278	0.903	0.631	0.692	0.528	0.817	0.527	0.428	0.914	0.977	1	0.825	0.461	0.908
